Reference: patent US9303027B2 (dated 2016)
Counter-ions that a name gives are not always drawn.

melting point	SMILES
96 to 98 °C	Cn1c(=O)oc2ccc(C3(C(=O)N[C@H](CN4CCCC4)c4ccccc4)CC3)cc21 (stereo in doubt)
101.8 to 102.2 °C	CC(=O)c1cc(C2(C(=O)N[C@H](CN3CCCC3)c3ccccc3)CC2)ccc1O (stereo in doubt)
163 to 165 °C	O=C(N[C@H](CN1CCCC1)c1ccccc1)C1(c2ccc3c(c2)C=CS(=O)(=O)N3)CC1
138 to 140 °C	O=C(N[C@H](CN1CCCC1)c1ccccc1)C1(c2ccc3c(c2)NS(=O)(=O)C3)CC1
127 to 129 °C	O=C(N[C@H](CN1CCCC1)c1ccccc1)C1(c2ccc3[nH]cnc3c2)CC1 (stereo in doubt)
158.5 to 158.8 °C	Cc1noc2ccc(C3(C(=O)N[C@H](CN4CCCC4)c4ccccc4)CC3)cc12 (stereo in doubt)
158.5 to 158.8 °C	C/C(=N/O)c1cc(C2(C(=O)N[C@H](CN3CCCC3)c3ccccc3)CC2)ccc1O (stereo in doubt)
239 to 241 °C	O=C(N[C@H](CN1CCCC1)c1ccccc1)C1(c2ccc3c(c2)NS(=O)(=O)O3)CC1
68 to 70 °C	CS(=O)(=O)c1cccc(C2(C(=O)N[C@H](CN3CCCC3)c3ccccc3)CC2)c1.Cl
82 to 83 °C	O=C(N[C@H](CN1CCCC1)c1ccccc1)C1(c2ccc3[nH]ncc3c2)CC1 (stereo in doubt)
130 °C	CS(=O)(=O)Nc1cc(C2(C(=O)N[C@H](CN3CCCC3)c3ccccc3)CC2)ccc1F.Cl (stereo in doubt)
148 to 150 °C	O=C(N[C@H](CN1CCCC1)c1ccccc1)C1(c2ccc3c(c2)NS(=O)(=O)C=C3)CC1
129 to 130 °C	O=C(N[C@H](CN1CCCC1)c1ccccc1)C1(c2ccc3oncc3c2)CC1
176 to 178 °C	Cl.O=C(N[C@H](CN1CCCC1)c1ccccc1)C1(c2cnc3ccccc3c2)CC1
67 to 69 °C	CS(=O)(=O)Nc1cc(C2(C(=O)N[C@H](CN3CCCC3)c3ccccc3)CC2)ccc1F (stereo in doubt)
115 to 118 °C	O=C1Cc2ccc(C3(C(=O)N[C@H](CN4CCCC4)c4ccccc4)CC3)cc2N1
137 to 139 °C	O=C(N[C@H](CN1CCCC1)c1ccccc1)C1(c2cccc(-c3nnn[nH]3)c2)CC1 (stereo in doubt)
150 to 152 °C	Cl.O=C(N[C@H](CN1CCCC1)c1ccccc1)C1(c2cccnc2)CC1
201 °C	NC(=O)c1ccc(C2(C(=O)N[C@H](CN3CCCC3)c3ccccc3)CC2)cc1 (stereo in doubt)
134 to 136 °C	O=C(O)c1ccc(C2(C(=O)N[C@H](CN3CCCC3)c3ccccc3)CC2)cc1
120 to 121 °C	NC(=O)c1cccc(C2(C(=O)N[C@H](CN3CCCC3)c3ccccc3)CC2)c1 (stereo in doubt)
92 to 94 °C	Cc1cc(C2(C(=O)N[C@H](CN3CCCC3)c3ccccc3)CC2)ccc1NS(C)(=O)=O (stereo in doubt)
92 to 94 °C	Cc1ccc(C2(C(=O)N[C@H](CN3CCCC3)c3ccccc3)CC2)cc1NS(C)(=O)=O (stereo in doubt)
78 to 80 °C	Cn1nnc2cc(C3(C(=O)N[C@H](CN4CCCC4)c4ccccc4)CC3)ccc21 (stereo in doubt)

Further lines, the compound ahead of its results:

SMILES	melting point
CS(=O)(=O)Nc1cc(C2(C(=O)N[C@H](CN3CCCC3)c3ccccc3)CC2)c(F)cc1F (stereo in doubt)	81.2 to 81.4 °C
O=C(N[C@H](CN1CCCC1)c1ccccc1)C1(c2nc3ccccc3s2)CC1	97 to 99 °C
O=C(N[C@H](CN1CC[C@H](O)C1)c1cccc([N+](=O)[O-])c1)C1(c2ccc3oc(=O)[nH]c3c2)CC1	224 to 226 °C
CS(=O)(=O)c1ccc(C2(C(=O)N[C@H](CN3CCCC3)c3ccccc3)CC2)cc1	150 to 152 °C
CS(=O)(=O)Nc1cccc([C@@H](CN2CCCC2)NC(=O)C2(c3ccc4oc(=O)[nH]c4c3)CC2)c1 (stereo in doubt)	114 to 116 °C
CS(=O)(=O)Oc1ccc(C2(C(=O)N[C@H](CN3CC[C@H](O)C3)c3ccccc3)CC2)cc1.Cl	60 to 62 °C
CS(=O)(=O)Nc1cccc(C2(C(=O)N[C@H](CN3CCCC3)C3CCCCC3)CC2)c1	201 to 202 °C
Cl.O=C(N[C@H](CN1CCCC1)c1ccccc1)C1(c2ccccn2)CC1	107.1 to 107.3 °C
CN(C)S(=O)(=O)c1ccccc1C1(C(=O)N[C@H](CN2CCCC2)c2ccccc2)CC1	80 to 81 °C
COc1ccc(C2(C(=O)N[C@H](CN3CCCC3)c3ccccc3)CC2)cc1NS(C)(=O)=O (stereo in doubt)	103 to 105 °C
CC(C)(C)OC(=O)N[C@H]1CCN(C[C@@H](NC(=O)C2(c3cccc(NS(C)(=O)=O)c3)CC2)c2ccccc2)C1	66.3 to 66.5 °C
O=C(N[C@H](CN1CCCC1)c1cccc(-c2nn[nH]n2)c1)C1(c2ccc3oc(=O)[nH]c3c2)CC1	107 to 109 °C
O=C(O)COc1ccc(C2(C(=O)N[C@H](CN3CCCC3)c3ccccc3)CC2)cc1 (stereo in doubt)	94 to 95 °C
CS(=O)(=O)Nc1cccc(C2(C(=O)N[C@@H](CN3CCCC3)c3cccc(OCc4ccccc4)c3)CC2)c1	70 to 72 °C
Nc1cccc([C@@H](CN2CCCC2)NC(=O)C2(c3ccc4oc(=O)[nH]c4c3)CC2)c1 (stereo in doubt)	95 to 97 °C
CN(C(=O)C1(c2ccccc2)CCC1)[C@H](CN1CCCC1)c1ccccc1.Cl	234 to 235 °C
Cl.O=C(N[C@H](CN1CCCC1)c1ccccc1)C1(c2ccccc2)CCCCC1	204 to 205 °C
CS(=O)(=O)Nc1cccc(C2(C(=O)N[C@@H](CN3CCCC3)c3cccc(O)c3)CC2)c1	103 to 105 °C
O=C(N[C@H](CN1CC[C@H](O)C1)c1ccccc1)C1(c2ccncc2)CC1	112 to 114 °C
CS(=O)(=O)Nc1ccc(C2(C(=O)N[C@H](CN3CCCC3)c3ccccc3)CC2)cn1	182.2 to 182.4 °C
N#Cc1cccc(COc2cccc([C@@H](CN3CCCC3)NC(=O)C3(c4ccc5oc(=O)[nH]c5c4)CC3)c2)c1 (stereo in doubt)	129 to 130 °C
O=C(N[C@H](CN1CCCC1)c1cccc(O)c1)C1(c2ccc3oc(=O)[nH]c3c2)CC1	132 to 134 °C
O=C(O)COc1cccc(C2(C(=O)N[C@H](CN3CCCC3)c3ccccc3)CC2)c1 (stereo in doubt)	124 to 125 °C
Cl.O=C(O)Cn1c(=O)oc2ccc(C3(C(=O)N[C@H](CN4CCCC4)c4ccccc4)CC3)cc21	166 to 168 °C
COC(=O)c1ccc(Cn2c(=O)oc3ccc(C4(C(=O)N[C@H](CN5CCCC5)c5cccc(O)c5)CC4)cc32)cc1	119 to 120 °C
N#Cc1ccc(COc2cccc([C@@H](CN3CCCC3)NC(=O)C3(c4ccc5oc(=O)[nH]c5c4)CC3)c2)cc1 (stereo in doubt)	88 to 89 °C
CN(C(=O)C1(c2ccccc2)CCCCC1)[C@H](CN1CCCC1)c1ccccc1.Cl	232 to 233 °C
CS(=O)(=O)Nc1cccc(C2(C(=O)N[C@H](CN3CC[C@H](N)C3)c3ccccc3)CC2)c1 (as salt: trifluoroacetate)	119.6 to 119.8 °C
CN(C(=O)C1(c2ccccc2)CCCC1)[C@H](CN1CCCC1)c1ccccc1.Cl	220 to 221 °C
